Measured values published in PMC11864979, “First-in-class ultralong-target-residence-time p38α inhibitors as a mitosis-targeted therapy for colorectal cancer” (Nature Cancer, 2025).
Read-outs that look alike come from different tables or passages of the source.

How the values were obtained:
Test in all cases: selectivity profiling in a panel of 340 wild-type kinases (Reaction Biology Europe)
Type in all cases: binding
340 wild-type kinases [1] = biological target: T1, 340 wild-type kinases (Homo sapiens, UniProt P14616)
T1 construct: purchased Reaction Biology Europe

340 wild-type kinases [2] = biological target: T2, 340 wild-type kinases (Homo sapiens, UniProt Q9UEW8)
T2 construct: purchased Reaction Biology Europe

340 wild-type kinases [3] = biological target: T3, 340 wild-type kinases (Homo sapiens, UniProt Q16512)
T3 construct: purchased Reaction Biology Europe

340 wild-type kinases [4] = biological target: T4, 340 wild-type kinases (Homo sapiens, UniProt O75716)
T4 construct: purchased Reaction Biology Europe

340 wild-type kinases [5] = biological target: T5, 340 wild-type kinases (Homo sapiens, UniProt Q00535)
T5 construct: purchased Reaction Biology Europe

340 wild-type kinases [6] = biological target: T6, 340 wild-type kinases (Homo sapiens, UniProt Q8N568)
T6 construct: purchased Reaction Biology Europe

340 wild-type kinases [7] = biological target: T7, 340 wild-type kinases (Homo sapiens, UniProt Q04912)
T7 construct: purchased Reaction Biology Europe

340 wild-type kinases [8] = biological target: T8, 340 wild-type kinases (Homo sapiens, UniProt P53778)
T8 construct: purchased Reaction Biology Europe
T8 sequence (P53778 1-367): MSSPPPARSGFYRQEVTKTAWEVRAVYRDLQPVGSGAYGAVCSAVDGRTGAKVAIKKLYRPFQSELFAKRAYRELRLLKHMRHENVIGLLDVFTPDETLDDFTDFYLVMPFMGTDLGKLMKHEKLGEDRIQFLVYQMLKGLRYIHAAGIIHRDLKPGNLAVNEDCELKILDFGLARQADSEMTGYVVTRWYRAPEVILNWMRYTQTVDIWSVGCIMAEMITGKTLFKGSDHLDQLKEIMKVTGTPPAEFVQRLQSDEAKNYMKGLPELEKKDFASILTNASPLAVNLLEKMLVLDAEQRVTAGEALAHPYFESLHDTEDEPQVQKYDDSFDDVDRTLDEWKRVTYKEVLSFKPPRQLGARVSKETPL

340 wild-type kinases [9] = biological target: T9, 340 wild-type kinases (Homo sapiens, UniProt Q9Y463)
T9 construct: purchased Reaction Biology Europe

340 wild-type kinases [10] = biological target: T10, 340 wild-type kinases (Homo sapiens, UniProt P45985)
T10 construct: purchased Reaction Biology Europe
T10 sequence (P45985 1-399): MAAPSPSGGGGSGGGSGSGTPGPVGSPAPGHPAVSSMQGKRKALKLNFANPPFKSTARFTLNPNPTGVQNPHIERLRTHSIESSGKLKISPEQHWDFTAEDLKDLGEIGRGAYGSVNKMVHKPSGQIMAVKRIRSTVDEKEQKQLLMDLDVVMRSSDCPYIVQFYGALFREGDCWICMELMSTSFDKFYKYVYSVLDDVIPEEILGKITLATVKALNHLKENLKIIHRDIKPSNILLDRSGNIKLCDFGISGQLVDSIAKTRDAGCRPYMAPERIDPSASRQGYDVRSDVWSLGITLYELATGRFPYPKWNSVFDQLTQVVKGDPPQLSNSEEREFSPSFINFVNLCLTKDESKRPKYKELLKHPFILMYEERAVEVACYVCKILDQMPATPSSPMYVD

340 wild-type kinases [11] = biological target: T11, 340 wild-type kinases (Homo sapiens, UniProt P35968)
T11 construct: purchased Reaction Biology Europe

340 wild-type kinases [12] = biological target: T12, 340 wild-type kinases (Homo sapiens, UniProt P43405)
T12 construct: purchased Reaction Biology Europe

340 wild-type kinases [13] = biological target: T13, 340 wild-type kinases (Homo sapiens, UniProt Q9UQB9)
T13 construct: purchased Reaction Biology Europe
T13 sequence (Q9UQB9 1-309): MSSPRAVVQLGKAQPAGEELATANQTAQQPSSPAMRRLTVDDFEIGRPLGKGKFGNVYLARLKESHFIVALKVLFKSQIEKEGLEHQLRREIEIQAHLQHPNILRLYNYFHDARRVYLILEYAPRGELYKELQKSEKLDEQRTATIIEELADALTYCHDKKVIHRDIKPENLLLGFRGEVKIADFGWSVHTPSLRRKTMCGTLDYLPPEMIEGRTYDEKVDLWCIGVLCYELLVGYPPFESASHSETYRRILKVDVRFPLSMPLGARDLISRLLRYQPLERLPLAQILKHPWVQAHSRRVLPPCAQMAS

340 wild-type kinases [14] = biological target: T14, 340 wild-type kinases (Homo sapiens, UniProt Q9Y6M4)
T14 construct: purchased Reaction Biology Europe

T6 sequence (Q8N568 whole entry): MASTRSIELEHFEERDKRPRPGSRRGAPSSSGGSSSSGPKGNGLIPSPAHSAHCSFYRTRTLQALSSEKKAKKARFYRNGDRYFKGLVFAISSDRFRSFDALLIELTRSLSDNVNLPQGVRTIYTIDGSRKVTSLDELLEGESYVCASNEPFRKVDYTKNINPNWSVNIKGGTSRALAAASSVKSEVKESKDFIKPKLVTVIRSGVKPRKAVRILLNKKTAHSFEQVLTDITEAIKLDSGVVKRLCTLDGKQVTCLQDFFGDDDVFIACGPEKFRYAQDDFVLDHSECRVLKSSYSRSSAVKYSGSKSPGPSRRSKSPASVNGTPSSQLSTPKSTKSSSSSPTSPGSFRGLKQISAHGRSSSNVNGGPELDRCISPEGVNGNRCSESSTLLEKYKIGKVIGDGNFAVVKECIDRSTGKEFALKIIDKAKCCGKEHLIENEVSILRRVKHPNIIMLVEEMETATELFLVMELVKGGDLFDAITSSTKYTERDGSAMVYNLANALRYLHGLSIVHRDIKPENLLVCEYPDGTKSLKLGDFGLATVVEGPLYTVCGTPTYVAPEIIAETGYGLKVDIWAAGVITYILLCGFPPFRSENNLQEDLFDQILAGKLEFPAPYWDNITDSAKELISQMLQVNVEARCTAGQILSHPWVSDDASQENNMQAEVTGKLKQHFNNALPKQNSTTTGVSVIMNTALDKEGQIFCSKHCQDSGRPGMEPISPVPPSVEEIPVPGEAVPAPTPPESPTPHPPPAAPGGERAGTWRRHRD
T7 sequence (Q04912 25-1400): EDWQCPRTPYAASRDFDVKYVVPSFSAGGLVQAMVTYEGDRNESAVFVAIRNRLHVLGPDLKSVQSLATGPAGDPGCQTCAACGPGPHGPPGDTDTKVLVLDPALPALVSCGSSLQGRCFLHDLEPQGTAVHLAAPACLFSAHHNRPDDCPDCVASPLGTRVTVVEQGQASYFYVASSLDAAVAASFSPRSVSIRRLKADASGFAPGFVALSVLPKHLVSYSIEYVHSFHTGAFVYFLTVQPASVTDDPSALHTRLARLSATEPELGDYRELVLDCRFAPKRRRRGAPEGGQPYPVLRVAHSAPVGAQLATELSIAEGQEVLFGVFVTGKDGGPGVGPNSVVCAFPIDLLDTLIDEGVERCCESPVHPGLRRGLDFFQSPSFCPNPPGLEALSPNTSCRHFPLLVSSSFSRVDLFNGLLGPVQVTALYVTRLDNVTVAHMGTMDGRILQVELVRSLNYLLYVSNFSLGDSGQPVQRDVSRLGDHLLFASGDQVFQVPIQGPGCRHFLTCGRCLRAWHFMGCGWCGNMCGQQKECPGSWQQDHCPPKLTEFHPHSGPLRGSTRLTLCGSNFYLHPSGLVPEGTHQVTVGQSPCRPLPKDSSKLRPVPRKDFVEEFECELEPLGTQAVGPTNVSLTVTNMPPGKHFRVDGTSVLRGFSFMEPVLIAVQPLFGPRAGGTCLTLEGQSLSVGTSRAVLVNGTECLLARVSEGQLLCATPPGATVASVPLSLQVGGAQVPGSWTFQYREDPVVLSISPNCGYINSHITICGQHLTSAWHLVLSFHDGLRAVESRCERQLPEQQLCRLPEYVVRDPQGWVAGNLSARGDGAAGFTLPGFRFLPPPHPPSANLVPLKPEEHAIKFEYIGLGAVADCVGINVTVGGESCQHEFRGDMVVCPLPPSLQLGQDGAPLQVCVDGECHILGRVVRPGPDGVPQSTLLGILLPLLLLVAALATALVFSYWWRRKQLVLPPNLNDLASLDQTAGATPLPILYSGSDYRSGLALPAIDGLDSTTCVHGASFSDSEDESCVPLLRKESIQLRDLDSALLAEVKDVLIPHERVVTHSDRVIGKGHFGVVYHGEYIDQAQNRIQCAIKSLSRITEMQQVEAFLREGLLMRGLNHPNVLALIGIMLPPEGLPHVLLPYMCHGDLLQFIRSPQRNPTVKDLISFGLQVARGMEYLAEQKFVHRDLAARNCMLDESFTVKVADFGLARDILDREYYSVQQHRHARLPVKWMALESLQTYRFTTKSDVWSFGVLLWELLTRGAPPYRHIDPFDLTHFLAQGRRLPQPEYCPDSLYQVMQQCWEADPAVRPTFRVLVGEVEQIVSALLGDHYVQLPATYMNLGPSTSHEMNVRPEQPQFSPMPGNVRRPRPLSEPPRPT
T1 sequence (P14616 27-1297): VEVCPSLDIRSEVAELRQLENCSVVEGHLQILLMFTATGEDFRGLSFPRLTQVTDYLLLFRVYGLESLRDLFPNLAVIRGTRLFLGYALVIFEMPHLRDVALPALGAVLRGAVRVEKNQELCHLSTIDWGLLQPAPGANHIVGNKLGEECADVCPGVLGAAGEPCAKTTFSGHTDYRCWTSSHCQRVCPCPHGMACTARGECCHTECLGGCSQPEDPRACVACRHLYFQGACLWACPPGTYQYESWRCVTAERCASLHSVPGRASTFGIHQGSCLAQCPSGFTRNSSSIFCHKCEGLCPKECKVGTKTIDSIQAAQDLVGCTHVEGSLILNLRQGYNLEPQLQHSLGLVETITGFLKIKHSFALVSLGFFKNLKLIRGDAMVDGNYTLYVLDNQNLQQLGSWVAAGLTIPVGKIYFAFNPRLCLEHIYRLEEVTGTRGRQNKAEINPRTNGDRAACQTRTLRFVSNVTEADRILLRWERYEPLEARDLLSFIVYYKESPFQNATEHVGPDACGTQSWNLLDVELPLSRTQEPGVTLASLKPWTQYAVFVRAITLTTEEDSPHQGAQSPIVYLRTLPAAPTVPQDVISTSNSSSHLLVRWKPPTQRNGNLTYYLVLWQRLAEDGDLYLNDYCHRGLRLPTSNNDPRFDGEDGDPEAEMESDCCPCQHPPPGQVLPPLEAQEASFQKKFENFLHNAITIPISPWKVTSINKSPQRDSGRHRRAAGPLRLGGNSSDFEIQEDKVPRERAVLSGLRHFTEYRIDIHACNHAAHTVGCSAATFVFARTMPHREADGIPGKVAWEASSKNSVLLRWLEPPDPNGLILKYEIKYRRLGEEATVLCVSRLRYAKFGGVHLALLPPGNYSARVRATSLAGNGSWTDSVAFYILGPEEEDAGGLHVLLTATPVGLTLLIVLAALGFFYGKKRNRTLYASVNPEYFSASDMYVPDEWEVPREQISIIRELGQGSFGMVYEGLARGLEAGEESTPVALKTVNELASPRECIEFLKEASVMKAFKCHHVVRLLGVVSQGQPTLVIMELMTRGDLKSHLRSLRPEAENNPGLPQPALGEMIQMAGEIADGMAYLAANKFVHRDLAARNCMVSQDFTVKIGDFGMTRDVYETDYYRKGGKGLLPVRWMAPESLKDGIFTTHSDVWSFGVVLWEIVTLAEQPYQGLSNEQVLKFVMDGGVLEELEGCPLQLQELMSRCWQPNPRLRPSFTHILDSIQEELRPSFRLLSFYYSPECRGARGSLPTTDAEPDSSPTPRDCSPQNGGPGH
T5 sequence (Q00535 whole entry): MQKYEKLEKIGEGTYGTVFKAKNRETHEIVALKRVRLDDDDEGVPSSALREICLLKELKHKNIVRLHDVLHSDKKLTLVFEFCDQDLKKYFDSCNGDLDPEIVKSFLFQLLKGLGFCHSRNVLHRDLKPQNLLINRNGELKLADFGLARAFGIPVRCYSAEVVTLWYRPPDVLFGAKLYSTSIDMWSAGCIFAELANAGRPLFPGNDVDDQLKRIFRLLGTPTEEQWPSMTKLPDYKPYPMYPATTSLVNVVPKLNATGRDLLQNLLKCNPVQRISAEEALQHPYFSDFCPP
T3 sequence (Q16512 whole entry): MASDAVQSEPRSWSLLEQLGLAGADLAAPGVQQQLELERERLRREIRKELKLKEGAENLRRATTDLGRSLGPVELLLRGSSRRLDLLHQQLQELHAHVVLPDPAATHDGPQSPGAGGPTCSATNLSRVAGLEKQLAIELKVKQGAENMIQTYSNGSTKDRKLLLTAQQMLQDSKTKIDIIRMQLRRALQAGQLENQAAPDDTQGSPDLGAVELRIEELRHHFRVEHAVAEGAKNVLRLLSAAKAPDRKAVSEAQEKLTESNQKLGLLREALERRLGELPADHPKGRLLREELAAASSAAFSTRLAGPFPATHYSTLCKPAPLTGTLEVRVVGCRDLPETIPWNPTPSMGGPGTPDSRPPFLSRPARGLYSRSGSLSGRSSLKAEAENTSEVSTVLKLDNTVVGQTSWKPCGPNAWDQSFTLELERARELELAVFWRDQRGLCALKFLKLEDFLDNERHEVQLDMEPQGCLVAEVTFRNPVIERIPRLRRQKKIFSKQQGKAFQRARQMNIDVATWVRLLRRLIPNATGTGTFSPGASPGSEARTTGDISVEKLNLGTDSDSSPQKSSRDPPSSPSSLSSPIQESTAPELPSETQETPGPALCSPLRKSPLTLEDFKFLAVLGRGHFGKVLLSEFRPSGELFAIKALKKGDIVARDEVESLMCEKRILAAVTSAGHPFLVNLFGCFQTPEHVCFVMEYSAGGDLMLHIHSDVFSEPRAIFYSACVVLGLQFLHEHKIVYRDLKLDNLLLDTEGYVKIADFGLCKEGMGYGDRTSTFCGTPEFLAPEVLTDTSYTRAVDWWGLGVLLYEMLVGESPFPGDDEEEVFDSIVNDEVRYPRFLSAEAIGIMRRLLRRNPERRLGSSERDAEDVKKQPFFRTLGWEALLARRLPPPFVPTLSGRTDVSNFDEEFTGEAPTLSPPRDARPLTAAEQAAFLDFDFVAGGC
T4 sequence (O75716 whole entry): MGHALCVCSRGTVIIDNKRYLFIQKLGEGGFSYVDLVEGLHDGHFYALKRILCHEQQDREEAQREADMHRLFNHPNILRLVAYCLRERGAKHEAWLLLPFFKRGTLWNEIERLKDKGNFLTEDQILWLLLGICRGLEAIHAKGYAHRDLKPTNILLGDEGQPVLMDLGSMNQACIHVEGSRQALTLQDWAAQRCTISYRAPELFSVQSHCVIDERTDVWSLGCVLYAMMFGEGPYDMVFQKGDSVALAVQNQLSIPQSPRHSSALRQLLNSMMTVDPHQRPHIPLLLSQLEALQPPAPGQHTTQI

SMILES: CNC(=O)c1ccc2c(c1)C(=O)c1ccc(Nc3ccc(F)c(NC(=O)C4CC4)c3)cc1CC2 [Compound 2015]
- remaining activity at 0.2 µM (340 wild-type kinases [1]; 0.2 µM 2015, read-out: INSRR residual activity): 96%
- remaining activity at 1 µM (340 wild-type kinases [1]; 1 µM 2015, read-out: INSRR residual activity): 97.4%
- remaining activity at 0.2 µM (340 wild-type kinases [1]; INSRR, 0.2 µM, read-out: residual activity): 96%
- remaining activity at 1 µM (340 wild-type kinases [1]; INSRR, 1 µM, read-out: residual activity): 97.4%
- remaining activity at 0.2 µM (340 wild-type kinases [2]; 0.2 µM 2015, read-out: STK39 residual activity): 109%
- remaining activity at 1 µM (340 wild-type kinases [2]; 1 µM 2015, read-out: STK39 residual activity): 108%
- remaining activity at 0.2 µM (340 wild-type kinases [2]; STK39, 0.2 µM, read-out: residual activity): 109%
- remaining activity at 1 µM (340 wild-type kinases [2]; STK39, 1 µM, read-out: residual activity): 108%
- remaining activity at 0.2 µM (340 wild-type kinases [3]; 0.2 µM 2015, read-out: PRK1 residual activity): 101%
- remaining activity at 1 µM (340 wild-type kinases [3]; 1 µM 2015, read-out: PRK1 residual activity): 97.6%
- remaining activity at 0.2 µM (340 wild-type kinases [3]; PRK1, 0.2 µM, read-out: residual activity): 101%
- remaining activity at 1 µM (340 wild-type kinases [3]; PRK1, 1 µM, read-out: residual activity): 97.6%
- remaining activity at 0.2 µM (340 wild-type kinases [4]; 0.2 µM 2015, read-out: TSF1 residual activity): 95.7%
- remaining activity at 1 µM (340 wild-type kinases [4]; 1 µM 2015, read-out: TSF1 residual activity): 85.7%
- remaining activity at 0.2 µM (340 wild-type kinases [4]; TSF1, 0.2 µM, read-out: residual activity): 95.7%
- remaining activity at 1 µM (340 wild-type kinases [4]; TSF1, 1 µM, read-out: residual activity): 85.7%
- remaining activity at 0.2 µM (340 wild-type kinases [5]; 0.2 µM 2015, read-out: CDK5/p25NCK residual activity): 110%
- remaining activity at 0.2 µM (340 wild-type kinases [5]; 0.2 µM 2015, read-out: CDK5/p35NCK residual activity): 114%
- remaining activity at 1 µM (340 wild-type kinases [5]; 1 µM 2015, read-out: CDK5/p25NCK residual activity): 100%
- remaining activity at 1 µM (340 wild-type kinases [5]; 1 µM 2015, read-out: CDK5/p35NCK residual activity): 103%
- remaining activity at 0.2 µM (340 wild-type kinases [5]; CDK5/p25NCK, 0.2 µM, read-out: residual activity): 110%
- remaining activity at 1 µM (340 wild-type kinases [5]; CDK5/p25NCK, 1 µM, read-out: residual activity): 100%
- remaining activity at 0.2 µM (340 wild-type kinases [5]; CDK5/p35NCK, 0.2 µM, read-out: residual activity): 114%
- remaining activity at 1 µM (340 wild-type kinases [5]; CDK5/p35NCK, 1 µM, read-out: residual activity): 103%
- remaining activity at 0.2 µM (340 wild-type kinases [6]; 0.2 µM 2015, read-out: DCAMKL2 residual activity): 102%
- remaining activity at 1 µM (340 wild-type kinases [6]; 1 µM 2015, read-out: DCAMKL2 residual activity): 86.3%
- remaining activity at 0.2 µM (340 wild-type kinases [6]; DCAMKL2, 0.2 µM, read-out: residual activity): 102%
- remaining activity at 1 µM (340 wild-type kinases [6]; DCAMKL2, 1 µM, read-out: residual activity): 86.3%
- remaining activity at 0.2 µM (340 wild-type kinases [7]; 0.2 µM 2015, read-out: RON residual activity): 97%
- remaining activity at 1 µM (340 wild-type kinases [7]; 1 µM 2015, read-out: RON residual activity): 101%
- remaining activity at 0.2 µM (340 wild-type kinases [7]; RON, 0.2 µM, read-out: residual activity): 97%
- remaining activity at 1 µM (340 wild-type kinases [7]; RON, 1 µM, read-out: residual activity): 101%
- remaining activity at 0.2 µM (340 wild-type kinases [8]; 0.2 µM 2015, read-out: p38gamma residual activity): 83.5%
- remaining activity at 1 µM (340 wild-type kinases [8]; 1 µM 2015, read-out: p38gamma residual activity): 77.7%
- remaining activity at 0.2 µM (340 wild-type kinases [8]; p38gamma, 0.2 µM, read-out: residual activity): 83.5%
- remaining activity at 1 µM (340 wild-type kinases [8]; p38gamma, 1 µM, read-out: residual activity): 77.7%
- remaining activity at 0.2 µM (340 wild-type kinases [9]; 0.2 µM 2015, read-out: DYRK1B residual activity): 96.9%
- remaining activity at 1 µM (340 wild-type kinases [9]; 1 µM 2015, read-out: DYRK1B residual activity): 94.1%
- remaining activity at 0.2 µM (340 wild-type kinases [9]; DYRK1B, 0.2 µM, read-out: residual activity): 96.9%
- remaining activity at 1 µM (340 wild-type kinases [9]; DYRK1B, 1 µM, read-out: residual activity): 94.1%
- remaining activity at 0.2 µM (340 wild-type kinases [10]; 0.2 µM 2015, read-out: MKK4 residual activity): 81.9%
- remaining activity at 1 µM (340 wild-type kinases [10]; 1 µM 2015, read-out: MKK4 residual activity): 91.3%
- remaining activity at 0.2 µM (340 wild-type kinases [10]; MKK4, 0.2 µM, read-out: residual activity): 81.9%
- remaining activity at 1 µM (340 wild-type kinases [10]; MKK4, 1 µM, read-out: residual activity): 91.3%
- remaining activity at 0.2 µM (340 wild-type kinases [11]; 0.2 µM 2015, read-out: VEGFR2 residual activity): 86.7%
- remaining activity at 1 µM (340 wild-type kinases [11]; 1 µM 2015, read-out: VEGFR2 residual activity): 96.7%
- remaining activity at 0.2 µM (340 wild-type kinases [11]; VEGFR2, 0.2 µM, read-out: residual activity): 86.7%
- remaining activity at 1 µM (340 wild-type kinases [11]; VEGFR2, 1 µM, read-out: residual activity): 96.7%
- remaining activity at 0.2 µM (340 wild-type kinases [12]; 0.2 µM 2015, read-out: SYK residual activity): 95.8%
- remaining activity at 1 µM (340 wild-type kinases [12]; 1 µM 2015, read-out: SYK residual activity): 85.6%
- remaining activity at 0.2 µM (340 wild-type kinases [12]; SYK, 0.2 µM, read-out: residual activity): 95.8%
- remaining activity at 1 µM (340 wild-type kinases [12]; SYK, 1 µM, read-out: residual activity): 85.6%
- remaining activity at 0.2 µM (340 wild-type kinases [13]; 0.2 µM 2015, read-out: AuroraC residual activity): 88.5%
- remaining activity at 1 µM (340 wild-type kinases [13]; 1 µM 2015, read-out: AuroraC residual activity): 96.3%
- remaining activity at 0.2 µM (340 wild-type kinases [13]; AuroraC, 0.2 µM, read-out: residual activity): 88.5%
- remaining activity at 1 µM (340 wild-type kinases [13]; AuroraC, 1 µM, read-out: residual activity): 96.3%
- remaining activity at 0.2 µM (340 wild-type kinases [14]; 0.2 µM 2015, read-out: CK1gamma3 residual activity): 93.4%
- remaining activity at 1 µM (340 wild-type kinases [14]; 1 µM 2015, read-out: CK1gamma3 residual activity): 91%
- remaining activity at 0.2 µM (340 wild-type kinases [14]; CK1gamma3, 0.2 µM, read-out: residual activity): 93.4%
- remaining activity at 1 µM (340 wild-type kinases [14]; CK1gamma3, 1 µM, read-out: residual activity): 91%
